Patent US20250154197A1, “LIPOLYTIC PEPTIDES” (FUNDACIÓ HOSPITAL UNIVERSITARI VALL D'HEBRON - INSTITUT DE …, priority 2021, published 2025)
Where no end group is shown, it is not given here. [ ]: non-standard residue; d: D form. The star is where a group is joined. Palmitoyl = CCCCCCCCCCCCCCCC(=O)*

Test system: human subcutaneoous mature adipocytes
Assay: Lipolytic activity: glycerol release in human adipocytes (Lipolysis Assay kit)
Assay type: cell-based
Conditions: human subcutaneous mature adipocytes

Substance: Ac-NDLEGLY (Ac-[dN][dD][dL][dE]G[dL][dY]-OH; SMILES CC(=O)N[C@H](CC(N)=O)C(=O)N[C@H](CC(=O)O)C(=O)N[C@H](CC(C)C)C(=O)N[C@H](CCC(=O)O)C(=O)NCC(=O)N[C@H](CC(C)C)C(=O)N[C@H](Cc1ccc(O)cc1)C(=O)O) [GP3DM-25, N-term CH3CONH, C-term COOH]
- Lipolysis Activity measured as Glycerol (μM) release in media (25 μg/ml): 134.2 µM
- Lipolysis Activity measured as Glycerol (μM) release in media (50 μg/ml): 104.4 µM
- Lipolysis Activity measured as Glycerol (μM) release in media (100 μg/ml): 121.6 µM

Substance: LN-LD-LP-DE-G-LL-LY (NDP[dE]GLY) [GP3DM-16, N-term NH2, C-term COOH]
- Lipolysis Activity measured as Glycerol (μM) release in media (50 μg/ml): 41.5 µM
- Lipolysis Activity measured as Glycerol (μM) release in media (100 μg/ml): 44.1 µM

Substance: CH3(CH2)14CONH-NDLEGLY (Palmitoyl-[dN][dD][dL][dE]G[dL][dY]-OH; SMILES CCCCCCCCCCCCCCCC(=O)N[C@H](CC(N)=O)C(=O)N[C@H](CC(=O)O)C(=O)N[C@H](CC(C)C)C(=O)N[C@H](CCC(=O)O)C(=O)NCC(=O)N[C@H](CC(C)C)C(=O)N[C@H](Cc1ccc(O)cc1)C(=O)O) [GP3DM-28, N-term CH3(CH2)14CONH, C-term COOH]
- Lipolysis Activity measured as Glycerol (μM) release in media (25 μg/ml): 50.5 µM
- Lipolysis Activity measured as Glycerol (μM) release in media (50 μg/ml): 122.6 µM
- Lipolysis Activity measured as Glycerol (μM) release in media (100 μg/ml): 106.0 µM

Substance: Ac-NDPEGLY (Ac-[dN][dD][dP][dE]G[dL][dY]-OH; SMILES CC(=O)N[C@H](CC(N)=O)C(=O)N[C@H](CC(=O)O)C(=O)N1CCC[C@@H]1C(=O)N[C@H](CCC(=O)O)C(=O)NCC(=O)N[C@H](CC(C)C)C(=O)N[C@H](Cc1ccc(O)cc1)C(=O)O) [Acetyl-NH-EDL67, N-term CH3CONH, C-term COOH]
- Lipolysis Activity measured as Glycerol (μM) release in media (25 μg/ml): 66.2 µM
- Lipolysis Activity measured as Glycerol (μM) release in media (50 μg/ml): 121.0 µM
- Lipolysis Activity measured as Glycerol (μM) release in media (100 μg/ml): 74.2 µM

Substance: Ac-NDPEGLY-NH2 (Ac-[dN][dD][dP][dE]G[dL][dY]-NH2; SMILES CC(=O)N[C@H](CC(N)=O)C(=O)N[C@H](CC(=O)O)C(=O)N1CCC[C@@H]1C(=O)N[C@H](CCC(=O)O)C(=O)NCC(=O)N[C@H](CC(C)C)C(=O)N[C@H](Cc1ccc(O)cc1)C(N)=O) [GP3DM-27, N-term CH3CONH, C-term CONH2]
- Lipolysis Activity measured as Glycerol (μM) release in media (25 μg/ml): 72.6 µM
- Lipolysis Activity measured as Glycerol (μM) release in media (50 μg/ml): 133.3 µM
- Lipolysis Activity measured as Glycerol (μM) release in media (100 μg/ml): 142.7 µM

Substance: Ac-LN-LD-LP-LE-G-LL-LY (Ac-NDPEGLY) [Acetyl-NH-GP3DM-12, N-term CH3CONH, C-term COOH]
- Lipolysis Activity measured as Glycerol (μM) release in media (100 μg/ml): 138.6 µM

Substance: NDEGLY [GP3DM-24] (H-[dN][dD][dE]G[dL][dY]-OH; SMILES CC(C)C[C@@H](NC(=O)CNC(=O)[C@@H](CCC(=O)O)NC(=O)[C@@H](CC(=O)O)NC(=O)[C@H](N)CC(N)=O)C(=O)N[C@H](Cc1ccc(O)cc1)C(=O)O) [N-term NH2, C-term COOH]
- Lipolysis Activity measured as Glycerol (μM) release in media (25 μg/ml): 105.2 µM
- Lipolysis Activity measured as Glycerol (μM) release in media (50 μg/ml): 111.0 µM
- Lipolysis Activity measured as Glycerol (μM) release in media (100 μg/ml): 148.6 µM

Substance: WDPEGVF (H-[dW][dD][dP][dE]G[dV][dF]-OH; SMILES CC(C)[C@@H](NC(=O)CNC(=O)[C@@H](CCC(=O)O)NC(=O)[C@H]1CCCN1C(=O)[C@@H](CC(=O)O)NC(=O)[C@H](N)Cc1c[nH]c2ccccc12)C(=O)N[C@H](Cc1ccccc1)C(=O)O) [GP3D-7 I VIII X, N-term NH2, C-term COOH]
- Lipolysis Activity measured as Glycerol (μM) release in media (25 μg/ml): 14.57 µM
- Lipolysis Activity measured as Glycerol (μM) release in media (50 μg/ml): 36.68 µM
- Lipolysis Activity measured as Glycerol (μM) release in media (75 μg/ml): 42.95 µM
- Lipolysis Activity measured as Glycerol (μM) release in media (100 μg/ml): 46.85 µM

Substance: NDPEGY (H-[dN][dD][dP][dE]G[dY]-OH; SMILES NC(=O)C[C@@H](N)C(=O)N[C@H](CC(=O)O)C(=O)N1CCC[C@@H]1C(=O)N[C@H](CCC(=O)O)C(=O)NCC(=O)N[C@H](Cc1ccc(O)cc1)C(=O)O) [GP3DM-20, N-term NH2, C-term COOH]
- Lipolysis Activity measured as Glycerol (μM) release in media (25 μg/ml): 128.1 µM
- Lipolysis Activity measured as Glycerol (μM) release in media (50 μg/ml): 117.7 µM
- Lipolysis Activity measured as Glycerol (μM) release in media (100 μg/ml): 118.7 µM
